# Reference: patent US8334302B2, “Synthesis and anti-proliferative effect of substituted imidazo[4,5-b]pyridine compounds” (Spelman College, priority 2008, dated 2012)
# Experiments:
# [1] = tested on: PC-3 human prostate cancer cells; experiment: Inhibition of cell proliferation in PC-3 cells, DNA assay (Hoechst 33258); format: cell-based; conditions: for IC50: Homo sapiens, inhibition of PC-3 cells, read-out: PC3 IC50
# Method: Cell Culture and Drug Treatment. PC-3 human prostate cancer cells were seeded in duplicate 96 well tissue culture plates at 500 cells/well in 80-μL Dulbecco's […] (DMEM) supplemented with 5% fetal bovine serum (FBS) and nonessential amino acids and 1% equimolar mixture of streptomycin-penicllin. The flasks were incubated in a humidified 95% air/5% CO2 atmosphere. The cells were grown for at least 24 hours to ensure that they were in the early log phase of growth. Cells were then treated with 20-μL drug solutions (stock 10 mM drug solution in DMSO was diluted in DMEM containing 5% FBS such that final DMSO concentration is less than 1%) of appropriate final concentration by serial dilution. Untreated control cells received 20-μL DMEM containing 5% FBS. Six wells of each plate received the same drug concentration. Thus, each data point and error bars are an average and standard deviation of readings from 12 wells treated with identical drug concentration.
# DNA Assay. After appropriate time of incubation, DNA assay was performed. For DNA assay, each culture plate was washed with 25% PBS and incubated in deionized double distilled water for at least one hour at room temperature. Plates were frozen at −70° C. and thawed/equilibrated to room temperature. Hoechst 33258 DNA binding dye was then added to each well in 200-μL of high salt TNE buffer (10 mM Tris, 1 mM EDTA, 2 M NaCl [pH 7.4]) at a final concentration of 6.7-μg/mL. After further incubation at room temperature for 2 hours under protection from light, culture plates were scanned on the CytoFluor 2350™ scanner using the 360/460 nm filter excitation and emission set. Readings from all plates were normalized to the fluorescence of control untreated cells and all data were expressed as the percent control.
# CDK1/cyclinB(h) = biological target: T1, CDK1/cyclinB(h) (Homo sapiens, UniProt P06493); experiment: Kinase assay, Millipore KinaseProfiler, radiometric; format: biochemical; conditions: CDK1/cyclinB(h) activity in presence of compound
# T1 construct: purchased Millipore (KinaseProfiler Service)
# T1 sequence (P06493 whole entry): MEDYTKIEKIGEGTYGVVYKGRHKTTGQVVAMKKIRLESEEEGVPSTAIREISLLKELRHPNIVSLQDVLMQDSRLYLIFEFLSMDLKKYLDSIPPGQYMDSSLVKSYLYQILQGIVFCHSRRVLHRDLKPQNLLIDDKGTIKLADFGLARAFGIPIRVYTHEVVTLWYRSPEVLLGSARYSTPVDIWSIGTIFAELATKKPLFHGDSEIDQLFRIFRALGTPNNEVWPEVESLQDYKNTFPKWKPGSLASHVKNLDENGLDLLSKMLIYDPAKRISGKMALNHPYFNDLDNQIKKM
# T1 sequence (P14635 whole entry partner): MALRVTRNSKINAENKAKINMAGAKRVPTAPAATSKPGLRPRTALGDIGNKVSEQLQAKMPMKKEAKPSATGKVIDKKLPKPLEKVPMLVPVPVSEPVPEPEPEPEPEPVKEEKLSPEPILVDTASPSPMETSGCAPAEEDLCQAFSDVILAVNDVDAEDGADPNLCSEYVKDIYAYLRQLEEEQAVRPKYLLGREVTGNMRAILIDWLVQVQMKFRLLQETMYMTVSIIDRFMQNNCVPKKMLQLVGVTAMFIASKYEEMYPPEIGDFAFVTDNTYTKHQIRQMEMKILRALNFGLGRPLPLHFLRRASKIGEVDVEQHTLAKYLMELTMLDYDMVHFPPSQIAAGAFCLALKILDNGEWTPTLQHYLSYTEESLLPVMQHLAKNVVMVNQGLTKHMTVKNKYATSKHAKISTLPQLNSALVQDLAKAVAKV
# Method: (§1) Kinase Assays. Kinase assays were conducted by Millipore's KinaseProfiler Service to determine the amount of ATP phosphorylation that occurs in the presence of a benzimidazole molecule. Kinases assayed included IKKβ, CK2, CDK1/cyclinB, GSK3β, and p70S6K. The desired kinase was treated with the benzimidazole compound The reaction were initiated by the addition of the MgATP mix. After incubation for 40 minutes at room temperature, the reaction is stopped by the addition of 3% phosphoric acid solution. 10 μL of the reaction was then spotted onto a P30 filtermat and washed three times for 5 minutes in 75 mM phosphoric acid and once in methanol prior to drying and scintillation counting. The kinase activity was measured radiometrically to determine the amount of ATP phosphorylation produced. All assays were done in triplicate.
# IKKβ(h) = biological target: T2, IKKβ(h) (Homo sapiens, UniProt O14920); experiment: as above; format: biochemical; conditions: IKKβ(h) activity in presence of compound
# T2 construct: purchased Millipore (KinaseProfiler Service)
# T2 sequence (O14920 1-756): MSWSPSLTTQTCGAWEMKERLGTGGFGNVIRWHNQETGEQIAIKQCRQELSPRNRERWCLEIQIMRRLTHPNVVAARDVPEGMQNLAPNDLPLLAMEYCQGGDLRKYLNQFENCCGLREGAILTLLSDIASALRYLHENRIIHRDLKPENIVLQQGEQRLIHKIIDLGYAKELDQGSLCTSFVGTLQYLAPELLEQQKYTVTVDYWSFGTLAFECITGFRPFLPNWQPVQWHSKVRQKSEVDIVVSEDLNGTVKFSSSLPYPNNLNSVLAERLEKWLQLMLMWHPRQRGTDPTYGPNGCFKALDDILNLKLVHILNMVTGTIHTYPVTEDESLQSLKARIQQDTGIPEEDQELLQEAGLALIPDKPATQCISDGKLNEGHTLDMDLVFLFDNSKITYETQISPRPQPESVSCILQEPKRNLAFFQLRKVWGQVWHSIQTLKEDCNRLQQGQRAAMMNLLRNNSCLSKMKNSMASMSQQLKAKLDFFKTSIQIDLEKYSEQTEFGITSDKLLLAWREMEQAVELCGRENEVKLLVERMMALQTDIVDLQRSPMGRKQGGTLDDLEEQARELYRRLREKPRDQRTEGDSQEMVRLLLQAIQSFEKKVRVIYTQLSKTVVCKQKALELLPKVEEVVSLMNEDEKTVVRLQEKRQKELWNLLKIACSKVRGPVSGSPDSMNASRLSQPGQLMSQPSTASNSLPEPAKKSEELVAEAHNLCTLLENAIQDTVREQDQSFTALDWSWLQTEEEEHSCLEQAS
# Method: as §1
# CK2(h) = biological target: T3, CK2(h) (Homo sapiens, UniProt P68400); experiment: as above; format: biochemical; conditions: CK2(h) activity in presence of compound
# T3 construct: purchased Millipore (KinaseProfiler Service)
# T3 sequence (P68400 whole entry): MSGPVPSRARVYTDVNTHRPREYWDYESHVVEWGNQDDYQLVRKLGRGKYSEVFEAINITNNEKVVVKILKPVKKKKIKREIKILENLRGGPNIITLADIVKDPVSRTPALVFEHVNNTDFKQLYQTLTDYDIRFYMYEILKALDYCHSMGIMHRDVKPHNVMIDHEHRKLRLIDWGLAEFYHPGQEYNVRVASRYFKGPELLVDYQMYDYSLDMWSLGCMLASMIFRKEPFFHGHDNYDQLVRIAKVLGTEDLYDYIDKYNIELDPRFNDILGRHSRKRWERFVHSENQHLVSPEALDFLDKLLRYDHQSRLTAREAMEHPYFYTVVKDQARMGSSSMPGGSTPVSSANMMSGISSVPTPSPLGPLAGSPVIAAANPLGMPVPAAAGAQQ
# T3 sequence (P67870 whole entry partner): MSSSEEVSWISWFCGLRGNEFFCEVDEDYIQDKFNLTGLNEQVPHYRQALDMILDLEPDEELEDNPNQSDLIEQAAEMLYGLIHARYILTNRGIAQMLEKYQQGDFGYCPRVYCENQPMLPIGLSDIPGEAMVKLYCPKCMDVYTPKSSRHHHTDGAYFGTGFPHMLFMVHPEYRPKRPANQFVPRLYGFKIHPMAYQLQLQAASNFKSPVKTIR
# Method: as §1
# GSK3β(h) = biological target: T4, GSK3β(h) (Homo sapiens, UniProt P49841); experiment: as above; format: biochemical; conditions: GSK3β(h) activity in presence of compound
# T4 construct: purchased Millipore (KinaseProfiler Service)
# T4 sequence (P49841 whole entry): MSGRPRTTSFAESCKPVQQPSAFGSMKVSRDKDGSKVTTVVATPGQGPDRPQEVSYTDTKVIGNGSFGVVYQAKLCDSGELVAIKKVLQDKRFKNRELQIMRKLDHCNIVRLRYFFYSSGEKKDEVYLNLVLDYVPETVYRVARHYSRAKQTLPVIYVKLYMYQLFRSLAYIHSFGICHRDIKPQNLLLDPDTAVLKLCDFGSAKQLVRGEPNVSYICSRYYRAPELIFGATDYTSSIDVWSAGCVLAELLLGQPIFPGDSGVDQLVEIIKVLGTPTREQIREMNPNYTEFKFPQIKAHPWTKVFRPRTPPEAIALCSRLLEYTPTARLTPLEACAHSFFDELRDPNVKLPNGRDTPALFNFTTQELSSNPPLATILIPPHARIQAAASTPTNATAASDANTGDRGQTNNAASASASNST
# Method: as §1
# p70S6K(h) = biological target: T5, p70S6K(h) (Homo sapiens, UniProt P23443); experiment: as above; format: biochemical; conditions: p70S6K(h) activity in presence of compound
# T5 construct: purchased Millipore (KinaseProfiler Service)
# T5 sequence (P23443 whole entry): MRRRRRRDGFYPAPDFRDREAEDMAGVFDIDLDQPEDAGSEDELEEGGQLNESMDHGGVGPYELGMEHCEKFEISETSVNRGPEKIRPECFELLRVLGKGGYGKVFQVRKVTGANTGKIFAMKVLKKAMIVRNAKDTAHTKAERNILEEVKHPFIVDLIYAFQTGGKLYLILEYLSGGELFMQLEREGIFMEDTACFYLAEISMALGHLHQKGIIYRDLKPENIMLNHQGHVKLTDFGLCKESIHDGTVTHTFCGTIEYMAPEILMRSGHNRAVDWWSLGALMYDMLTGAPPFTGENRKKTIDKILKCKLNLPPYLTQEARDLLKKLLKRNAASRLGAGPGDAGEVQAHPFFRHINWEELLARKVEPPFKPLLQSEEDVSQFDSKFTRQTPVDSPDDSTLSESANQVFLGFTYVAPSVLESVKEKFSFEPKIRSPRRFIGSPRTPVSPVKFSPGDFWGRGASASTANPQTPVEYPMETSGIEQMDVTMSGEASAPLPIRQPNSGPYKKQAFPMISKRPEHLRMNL
# Method: as §1
# PC-3 cells = conditions: micromolar concentrations; cited from earlier work
# PDK1(h) = biological target: T6, PDK1(h) (Homo sapiens, UniProt O15530); experiment: Kinase assay, Millipore KinaseProfiler, radiometric; format: biochemical; conditions: PDK1(h) activity in presence of compound
# T6 construct: purchased Millipore (KinaseProfiler Service)
# T6 sequence (O15530 1-556): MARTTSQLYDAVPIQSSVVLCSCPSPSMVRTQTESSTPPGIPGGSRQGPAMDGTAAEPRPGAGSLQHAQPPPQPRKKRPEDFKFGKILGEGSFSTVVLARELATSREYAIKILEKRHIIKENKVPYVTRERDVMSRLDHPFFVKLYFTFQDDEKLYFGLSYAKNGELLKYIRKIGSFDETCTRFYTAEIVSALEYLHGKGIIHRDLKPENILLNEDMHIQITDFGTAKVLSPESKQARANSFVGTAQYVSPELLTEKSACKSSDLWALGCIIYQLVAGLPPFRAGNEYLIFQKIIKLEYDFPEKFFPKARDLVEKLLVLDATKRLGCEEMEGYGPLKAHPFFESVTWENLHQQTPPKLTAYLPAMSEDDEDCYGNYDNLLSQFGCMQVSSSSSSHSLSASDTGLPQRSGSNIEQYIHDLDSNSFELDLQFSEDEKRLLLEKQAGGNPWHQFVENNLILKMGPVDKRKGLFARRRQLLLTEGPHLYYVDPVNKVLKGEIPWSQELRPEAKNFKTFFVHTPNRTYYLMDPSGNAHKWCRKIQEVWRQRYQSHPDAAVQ
IC50 [1] [µM],% Activity (CDK1/cyclinB(h)) [%],% Activity (IKKβ(h)) [%],% Activity (CK2(h)) [%],% Activity (GSK3β(h)) [%],% Activity (p70S6K(h)) [%],SMILES,other results
18,–,–,–,–,–,CC(C)(C)c1ccc(-c2cc(C(F)(F)F)nn2-c2ccc(S(N)(=O)=O)cc2)cc1 [Compound 204],–
32,–,–,–,–,–,FC(F)(F)c1cc(-c2ccc3c(ccc4ccccc43)c2)n(-c2ccc(-c3nnn[nH]3)cc2)n1 [Compound 203],–
–,16,72,99,7,18,NS(=O)(=O)c1ccc(-c2nc3ccccc3n2-c2ccc(Oc3ccccc3)cc2)cc1 [Compound 210],–
30,–,–,–,–,–,"Cc1ccc(-c2cc(C(F)(F)F)nn2-c2ccc(S(N)(=O)=O)cc2)cc1 [Compound 201, Celecoxib]",–
10,–,–,–,–,–,NS(=O)(=O)c1ccc(-n2nc(C(F)(F)F)cc2-c2ccc3ccccc3c2)cc1 [Compound 205],–
–,36,25,22,5,12,"NS(=O)(=O)c1ccc(-c2nc3ccccc3n2-c2ccc(Cc3ccccc3)cc2)cc1 [Compound 209, 4-(1-(4-benzylphenyl)-1H-benzo[d]imidazol-2-yl)benzenesulfonamide]",% Activity (PDK1(h)): 30%
10,–,–,–,–,–,NS(=O)(=O)c1ccc(-c2nc3ccccc3n2-c2ccc3ccccc3c2)cc1 [Compound 208],–
–,11,71,99,13,17,NS(=O)(=O)c1ccc(-c2nc3ccccc3n2-c2ccc(-c3ccccc3)cc2)cc1 [Compound 211],–
20,–,–,–,–,–,"CC(C)(C)c1ccc(-n2c(-c3ccc(S(N)(=O)=O)cc3)nc3ccccc32)cc1 [Compound 207, 4-(1-(4-tert-butylphenyl)-1H-benzo[d]imidazol-2-yl)benzenesulfonamide]",–
24,7,86,92,72,33,"Cc1ccc(-n2c(-c3ccc(S(N)(=O)=O)cc3)nc3ccccc32)cc1 [Compound 206, 4-[1-(4-methylphenyl)-1H-benzo[d]imidazol-2-yl]benzenesulfonamide]","antiproliferative effect in PC-3 cells (in words) ([1]; PC-3 human prostate cancer cells, DNA assay, FIG. 1): slightly more effective"

SMILES,IC50 [1] [µM],% Activity (CDK1/cyclinB(h)) [%],% Activity (IKKβ(h)) [%],% Activity (CK2(h)) [%],% Activity (GSK3β(h)) [%],% Activity (p70S6K(h)) [%],other results
"N=C(N)Nc1ccc(-n2nc(C(F)(F)F)cc2-c2ccc3c(ccc4ccccc43)c2)cc1 [Compound 202, OSU-03013]",3,–,–,–,–,–,"concentration diminishing cell proliferation, relative to celecoxib (PC-3 cells): thirty-fold lower"
